Values quoted from earlier work in US20090318627A1, “SOLID PHASE SYNTHESIS OF ACRIDINIUM DERIVATIVES” (Siemens Healthcare Diagnostics Inc., priority 2006, published 2009).

Details: hydrolysis of ester linkage between acridinium ring and phenol

Compound: 9-carboxyphenyl-N-methylacridinium bromide
- hydrolytic stability of the acridinium ester linkage, in words: quite unstable

Compound: Cc1cc(C(=O)ON2C(=O)CCC2=O)cc(C)c1OC(=O)c1c2ccccc2[n+](C)c2ccccc12 [DMAE-NHS, 2′,6′-dimethyl-4′-(N-succinimidyloxycarbonyl)phenyl-10-methylacridinium-9-carboxylate]
- hydrolytic stability of the acridinium ester linkage, in words: significantly more resistant to hydrolysis
